Read-outs that look alike come from different tables or passages of the source.

The source of these data is US7943646B2, “Benzamidine derivative, process for the preparation thereof and pharmaceutical composition comprising same” (Dong Wha Pharmaceutical Co., Ltd., priority 2006, dated 2011).

One data set relates to MC3T3. Nature of the data set: Cytotoxicity test (MTT), MC3T3. Type of data set: cell-based. To be noted: 10^−6M, 72 hrs, in comparison with the control group. The protocol:
(§1) The cytotoxic effect of the benzamidine derivative of the present invention was evaluated by carrying out the experiment described below.
(§2) The test substance was diluted in an appropriate solvent at a 10^−2 M concentration. This substance was diluted in an appropriate culture medium for the cells used in the cytotoxicity test to a concentration of […], and loaded into a 96-well plate in 100 μl per well. The cell lines to be used in the cytotoxicity test were plated on a 96-well plate in a dose of 1.0×10^4 cells/1OO μl per well and cultured for 72 hrs. 25 μl of MTT [3-(4,5-dimethyl-2-thiazolyl)-2,5-diphenyl-2H-tetrazolium bromide] dissolved in PBS (2 mg/mL) were added before 4 hrs of the end of culture. After completion of the reaction, the plates were centrifuged, the medium was discarded and 100 μl of DMSO was added to dissolve formazan. Finally, the absorbance of the developed plates was measured at 540 nm. The survival rates of the cells were expressed as % concentration values in comparison with the control group.

In data set [1] the test system is osteoclast differentiation. Nature of the data set: Inhibitory effect on osteoclast differentiation, co-culture of bone marrow cells and osteoblast, TRAP staining. Type of data set: cell-based, mouse. To be noted: Mus musculus, Osteoclast, 168 h, read-out: inhibitory effect on osteoclast differentiation(%). Put shortly: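 Mouse ddY bone marrow cells (25,000/cm^2) were co-cultured with neonatal ICR calvarial osteoblasts (10,000/cm^2) and compound for 7 days, with 10^−7 M dexamethasone and 10^−8 M vitamin D3, refreshed every 2–3 days. TRAP-positive cells with ≥3 nuclei were counted and expressed as % inhibition versus negative controls.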

The next data set has as its system HOS. Nature of the data set: Cytotoxicity test (MTT), HOS. In kind it is cell-based. To be noted: 10^−6M, 72 hrs, in comparison with the control group. The protocol: as §1, §2
Data set [2] concerns ovariectomized white mouse. Nature of the data set: Therapeutic effect in mouse model of osteoporosis induced by ovariectomy, trabecular bone volume of the femur by histomorphometry. Type of data set: in vivo. To be noted: read-out: Changes in trabecular bone volume (% relative to vehicle control). The protocol:
The therapeutic effect of each benzamidine derivate of the present invention was evaluated on the ovariectomized white mouse. The substances of Examples 18, 19 and 72 were administered from 4 weeks after operation for 4 weeks and the substances of Examples 27, 33, 36, 47, 53 and 59 were administered from 3 days after operation for 29 days. Thereafter, the changes in the trabecular bone volume (TBV) of the femur were observed via histomorphometry.
Female ddY mice (6-week-old, SLC, Japan) were used after acclimatization for 7 days. Animals to be test were allocated 5 per a plastic cage for mice, and raised in a temperature (20 to 25[…]) and humidity (30 to 35%) controlled room. Feed and water were supplied free to access.
Salts of the benzamidine derivative of the present invention (methanesulfonic acid or HCl) were dissolved or suspended in sterilized, distilled water or 5% DMSO, and administered at a dose of 10 ml per body weight (kg) in the form of a solution. The substances of Examples 18, 19 and 72 were administered from 4 weeks after operation for 4 weeks, and the substances of Examples 27, 33, 36, 47, 53 and 59 were administered from 3 days after operation for 29 days each at 50 mg/kg/day.
After all animals anesthetize using ketamine hydrochloride and xylazine hydrochloride, bilateral ovaries were removed in order to induce estrogen-deficient osteoporosis. After ovariectomy, the […] were closed by routine methods.
The left femur was separated at a final sacrifice day, and fixed in 10% neutral formalin, then decalcified in a decalcifying solution (solution composed of 2.44% formic acid, and 0.5 N sodium hydroxide). The decalcifying solution was exchanges once a day for 5 days. After completion of the decalcification, the femur was embedded in paraffin, sectioned (3 to 4 μM), and stained with a hematoxylin-eosin stain. Observation was made using optical micrography.
The trabecular bone volume was calculated using automated image analysis (analysis Image Processing; SIS, Germany) in the femur using a femur histological specimen prepared in the above manner. The trabecular bone volume was calculated as percentage (%) levels.
All the numeral values were determined and compared to that of the vehicle control used in each experiment, using the calculation by the following Equation 1. Change(%)=[(trabecular bone volume of a−trabecular bone volume of b)/trabecular bone volume of b]×100 [Equation 1]
a: Experiment group, b: Vehicle group

The next data set relates to calvaria. Nature of the data set: Cytotoxicity test (MTT), calvaria. In kind it is cell-based. To be noted: 10^−6M, 72 hrs, in comparison with the control group. On the procedure:
as §1, §2

The mark [3] stands for this setting: 1 μm, 7 days co-culture, TRAP-positive osteoclasts with 3 or more nuclei, relative to negative controls.
Where [4] appears, read: 672 h, ovariectomized ddY mice, femur, 50 mg/kg/day, administered from 4 weeks after operation for 4 weeks.
Setting [5] is: 696 h, ovariectomized ddY mice, femur, 50 mg/kg/day, administered from 3 days after operation for 29 days.

With `Cc1nc(-c2ccc(OCCCCCOc3ccc(C(=N)NO)cc3)cc2)c(CCN2CCOCC2)s1` [Example 18, N-hydroxy-4-(5-{4-[2-methyl-5-(2-morpholin-4-yl-ethyl)-thiazol-4-yl]-phenoxy}-pentyloxy)-benzamidine], the “survival rates of the cells” value in the data set with MC3T3 is recorded as 94.4%; in the data set on HOS, 99.7%; with calvaria, 97.3%. In addition, in data set [1], the inhibition at 1 µM came to 100%. In data set [2] (672 h), the change in vivo at 50 mg/kg/day amounted to 139%.

As to `Cc1nc(-c2ccc(OCCCCCOc3ccc(C(=N)NO)cc3)cc2)c(CCN2CCN(C)CC2)s1` [Example 19, N-hydroxy-4-[5-(4-{2-methyl-5-[2-(4-methyl-piperazin-1-yl)-ethyl]-thiazol-4-yl}-phenoxy)-pentyloxy]-benzamidine], in data set [1] (setting [3]), the inhibition at 1 µM is 100%. In addition, the change in vivo at 50 mg/kg/day in data set [2] (setting [4]) worked out at 2.99%.

For the compound `CC(C)c1nc(-c2ccc(OCCCCCOc3ccc(C(=N)NO)cc3)cc2)c(CCN2CCOCC2)s1` [Example 27, N-hydroxy-4-(5-{4-[2-isopropyl-5-(2-morpholin-4-yl-ethyl)-thiazol-4-yl]-phenoxy}-pentyloxy)-benzamidine], the inhibition at 1 µM in data set [1] (setting [3]) was 81%. Moreover, the change in vivo at 50 mg/kg/day in data set [2] (setting [5]) stood at 23.6%.

Regarding `N=C(NO)c1ccc(OCCCCCOc2ccc(-c3nc(C4CCCCC4)sc3CCN3CCOCC3)cc2)cc1` [Example 33, N-hydroxy-4-(5-{4-[2-cyclohexyl-5-(2-morpholin-4-yl-ethyl)-thiazol-4-yl]-phenoxy}-pentyloxy)-benzamidine], the inhibition at 1 µM in data set [1] is 92%. Further, the change in vivo at 50 mg/kg/day in data set [2] (696 h) worked out at 26.3%.

For `N=C(NO)c1ccc(OCCCCCOc2ccc(-c3nc(C4CCCCC4)sc3CCN3CCSCC3)cc2)cc1` [Example 36, N-hydroxy-4-(5-{4-[2-cyclohexyl-5-(2-thiomorpholin-4-yl-ethyl)-thiazol-4-yl]-phenoxy}-pentyloxy)-benzamidine], the “survival rates of the cells” value is reported as 97.6% with MC3T3, 81.4% with HOS and 89.1% in the data set on calvaria. Further, the inhibition at 1 µM in data set [1] was determined as 100%. The change in vivo at 50 mg/kg/day in data set [2] (696 h) amounted to 26.6%.

`CNc1nc(-c2ccc(OCCCCCOc3ccc(C(=N)NO)cc3)cc2)c(CCN2CCOCC2)s1` [Example 47, N-hydroxy-4-(5-{4-[2-methylamino-5-(2-morpholin-4-yl-ethyl)-thiazol-4-yl]-phenoxy}-pentyloxy)-benzamidine]: the inhibition at 1 µM in data set [1] (setting [3]) worked out at 89.6%. Also, in data set [2] (setting [5]), the change in vivo at 50 mg/kg/day amounted to 5.77%.

As to `CN(C)c1nc(-c2ccc(OCCCCCOc3ccc(C(=N)NO)cc3)cc2)c(CCN2CCOCC2)s1` [Example 53, N-hydroxy-4-(5-{4-[2-dimethylamino-5-(2-morpholin-4-yl-ethyl)-thiazol-4-yl]-phenoxy}-pentyloxy)-benzamidine], the inhibition at 1 µM in data set [1] (setting [3]) was 99.3%. Moreover, in data set [2] (setting [5]), the change in vivo at 50 mg/kg/day is 25.6%.

Consider `COCCN(CCOC)c1nc(-c2ccc(OCCCCCOc3ccc(C(=N)NO)cc3)cc2)c(CCN2CCOCC2)s1` [Example 58, N-hydroxy-4-(5-{4-[2-[bis-(2-methoxy-ethyl)-amino]-5-(2-morpholin-4-yl-ethyl)-thiazol-4-yl]-phenoxy}-pentyloxy)-benzamidine], for which the “survival rates of the cells” value came to 79.2% with MC3T3, 85.4% in the data set with HOS and 76.8% in the data set with calvaria. Further, the inhibition at 1 µM in data set [1] (setting [3]) came out at 100%.

Regarding `N=C(NO)c1ccc(OCCCCCOc2ccc(-c3nc(N4CCOCC4)sc3CCN3CCOCC3)cc2)cc1` [Example 59, N-hydroxy-4-(5-{4-[2-morpholin-4-yl-5-(2-morpholin-4-yl-ethyl)-thiazol-4-yl]-phenoxy}-pentyloxy)-benzamidine], in data set [1] (setting [3]), the inhibition at 1 µM turned out to be 58%. The change in vivo at 50 mg/kg/day in data set [2] (setting [5]) was 5.66%.

Consider `N=C(NO)c1ccc(OCCCCCOc2ccc(-c3nc(N4CCOCC4)sc3CCNCCN3CCOCC3)cc2)cc1` [Example 62, N-hydroxy-4-[5-(4-{2-morpholin-4-yl-5-[2-(2-morpholin-4-yl-ethylamino)-ethyl]-thiazol-4-yl}-phenoxy)-pentyloxy]-benzamidine], for which the “survival rates of the cells” value in the data set on MC3T3 is listed as 97.0%; in the data set on HOS, 95.1%; with calvaria, 92.7%. Further, the inhibition at 1 µM in data set [1] (setting [3]) worked out at 43.6%.

Regarding `N=C(NO)c1ccc(OCCCCCOc2ccc(-c3nc(CN4CCCCC4)sc3CCN3CCOCC3)cc2)cc1` [Example 63, N-hydroxy-4-(5-{4-[5-(2-morpholin-4-yl-ethyl)-2-piperidin-1-yl-methyl-thiazol-4-yl]-phenoxy}-pentyloxy)-benzamidine], the “survival rates of the cells” value in the data set with MC3T3 is 89.4%; in the data set on HOS it was 86.5%; in the data set on calvaria, 86.9%. The inhibition at 1 µM in data set [1] (setting [3]) came to 99.2%.

For the compound `CNC(=O)c1sc(N)nc1-c1ccc(OCCCCCOc2ccc(C(=N)NO)cc2)cc1` [Example 72, N-hydroxy-4-{5-[4-(2-amino-5-methylcarbamoyl-thiazol-4-yl)-phenoxy]-pentyloxy}-benzamidine], in data set [1] (setting [3]), the inhibition at 1 µM was 97.6%. Further, in data set [2] (setting [4]), the change in vivo at 50 mg/kg/day was 95.6%.
